Reference: PubChem BioAssay AID624375 (Broad Institute, 2012)
Results filed as inconclusive are left out. Activity calls are given as the source filed them.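 The calls were made as follows: active = fitted curve reaches -35% activity change at a concentration under twice the top valid dose, in every replicate test; inconclusive = replicate tests disagree on the call; inactive = the rest, including activity in the opposite direction.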

Test system: not listed separately
Experiment: EBV-transformed lymphoblastoid cell viability decrease, dose response, EBV LMP1 NF-kB inhibitor project, CellTiter-Glo, dry powder, replicate tests (AID 624375)
Details: EBV-transformed LCL viability, CellTiter-Glo ATP luminescence, 48 h; at 10 µM (top of the series)
For `C/C=C/C/C=C/CCC(=O)[C@H]1O[C@H]1C(N)=O`, the activity change, negative = inhibition was -4.56% (inactive).

Same assay, conditions: EBV-transformed LCL viability, CellTiter-Glo ATP luminescence, 48 h; at 12 µM (top of the series)
With `C=C1C[C@]23C[C@@]1(O)CC[C@H]2[C@@]12C=C[C@H](O)[C@@](C)(C(=O)O1)[C@H]2[C@@H]3C(=O)O` the activity change, negative = inhibition was 5.8% (inactive).

Same assay, conditions: EBV-transformed LCL viability, CellTiter-Glo ATP luminescence, 48 h; at 19.5 µM (top of the series)
In the case of `CCn1c2ccccc2c2cc(/C=N/n3cnnc3)ccc21`, the activity change, negative = inhibition is reported as -4.23% (inactive).
With `CC1=C(C(=O)OCc2ccc3c(c2)OCO3)C(c2ccc(F)cc2)NC(=O)N1` (centres undefined) the activity change, negative = inhibition was -2.46% (inactive).
In the case of `C[C@@H]1CCCCO[C@@H](CN(C)Cc2ccccc2)[C@H](C)CN([C@H](C)CO)C(=O)c2cc(NC(=O)Nc3ccc4c(c3)OCO4)ccc2O1`, the activity change, negative = inhibition is reported as 1.71% (inactive).
In the case of `C[C@@H]1CCCCO[C@H](CN(C)S(=O)(=O)c2ccccc2)[C@@H](C)CN([C@@H](C)CO)C(=O)c2cc(N(C)C)ccc2O1`, the activity change, negative = inhibition is reported as -2.16% (inactive).
With `COc1cccc(/C=N/Nc2ncnc3c2ncn3Cc2ccccc2)c1O` the activity change, negative = inhibition was -7.51% (inactive).
For `CCc1ccc(/C=C/C(=O)C2C(=O)c3ccccc3C2=O)cc1`, the activity change, negative = inhibition was 10.9% (inactive).
In the case of `CCCSc1nnc2c3ccccc3n(Cc3ccccc3)c2n1`, the activity change, negative = inhibition is reported as -1.02% (inactive).
For `CCc1sc(C(=O)Nc2ncccc2O)cc1C`, the activity change, negative = inhibition was -13.2% (inactive).
For `CCc1ccc(/C=C2\SC(=S)N(CCCC(=O)Nc3ccccn3)C2=O)cc1`, the activity change, negative = inhibition was 3.41% (inactive).
For `COc1ccc(-c2csc3ncnc(NCCN4CCOCC4)c23)cc1`, the activity change, negative = inhibition was -6.51% (inactive).
For `C=CCN1Cc2ccccc2[C@@H]2OC(c3ccc(OCCCO)cc3)=N[C@]2(CCC(=O)OC(C)(C)C)C1=O`, the activity change, negative = inhibition was 1.04% (inactive).
In the case of `c1ccc(-c2cn3c4c(sc3n2)CCCC4)cc1`, the activity change, negative = inhibition is reported as 6.87% (inactive).
For `COc1ccc(-c2cc3nc4n(c(=O)c3s2)CCC4)cc1`, the activity change, negative = inhibition was -3.35% (inactive).
With `C[C@@H]1CCCCO[C@H](CN(C)C(=O)c2ccccc2)[C@H](C)CN([C@@H](C)CO)C(=O)c2cc(NC(=O)Nc3ccc(F)cc3)ccc2O1` the activity change, negative = inhibition was 2.16% (inactive).
With `O=C(CCc1ccccc1)NC(c1cccs1)c1cc(Cl)c2cccnc2c1O` (centres undefined) the activity change, negative = inhibition was 4.93% (inactive).

Test system: EBV-transformed LCL viability, CellTiter-Glo ATP luminescence, 48 h
Experiment: as above
Details: not given
`C[C@@H]1CN([C@@H](C)CO)C(=O)c2cc(NC(=O)Nc3ccc(C(F)(F)F)cc3)ccc2O[C@@H](C)CCCCO[C@@H]1CN(C)CC1CCCCC1` gave an AC35 of 45.7 µM.
With `C/C(=N\NC(=S)N1CC2CCC(CC2)C1)c1cccc(C)n1` the AC35 was 0.409 µM.
`C/C(=N\NC(=S)Nc1cccc(Cl)c1)c1ccccn1` gave an AC35 of less than 0.08 µM.
For `S=C(NCc1ccccn1)N/N=C/c1ccccn1`, the AC35 was less than 0.08 µM.
With `O=c1[nH]c(=O)n([C@H]2C[C@H](O)[C@@H](CO)O2)cc1C(F)(F)F` the AC35 was 10.1 µM.
With `C[C@@H]1CCCCO[C@H](CN(C)C(=O)NC2CCCCC2)[C@H](C)CN([C@@H](C)CO)C(=O)c2cc(NC(=O)C3CCCCC3)ccc2O1` the AC35 was 22.1 µM.
Work on `COCCCNC(=O)C(C)Sc1nnc2c3cc(C)ccc3n(Cc3ccccc3F)c2n1` (centres undefined) yielded an AC35 of 25 µM.
Work on `CC(=O)Nc1nc(C)c(-c2csc(Nc3ccc(O)cc3)n2)s1` yielded an AC35 of 22.8 µM.
`C/C(=N\NC(=S)N1CCN(C2CCCCCC2)CC1)c1ccccn1` showed an AC35 of less than 0.08 µM.
`C/C(=N\NC(=S)N1CCCCCC1)c1ccccn1` showed an AC35 of less than 0.08 µM.
With `C/C(=N\NC(=S)N1CCC1)c1ccccn1` the AC35 was less than 0.08 µM.
In the case of `C/C(=N\NC(=S)N1CC2CCC(CC2)C1)c1ccccn1`, the AC35 is reported as less than 0.08 µM.
With `C/C(=N\NC(=S)N1CCN(c2ccccn2)CC1)c1ccccn1` the AC35 was less than 0.08 µM.
For `C/C(=N\NC(=S)Nc1ccc(C)cc1)c1ccccn1`, the AC35 was less than 0.08 µM.
Work on `Fc1ccc2c(c1)c1nnc(SCCN3CCOCC3)nc1n2Cc1ccccc1` yielded an AC35 of 4.38 µM.
With `C=C1C[C@]23C[C@@]1(O)CC[C@@H]2c1cccc(C)c1[C@@H]3C(=O)O` the AC35 was 9.19 µM.
Molecule `C/C(=N\NC(=S)N1CCCC1)c1ccccn1` has an AC35 of less than 0.08 µM.
`CSc1nc(-c2ccc(C)cc2)nc(C(Cl)Cl)n1` showed an AC35 of 21.7 µM.
For `C/C(=N\NC(=S)N1CCCCC1)c1ccccn1`, the AC35 was less than 0.08 µM.
Work on `C[C@H]1CCCCO[C@@H](CN(C)CC2CCCCC2)[C@@H](C)CN([C@@H](C)CO)C(=O)c2cc(NC(=O)C3CCCCC3)ccc2O1` yielded an AC35 of 18.1 µM.
Work on `C/C(=N\NC(=S)Nc1ccccc1Cl)c1ccccn1` yielded an AC35 of less than 0.08 µM.
`COc1ccccc1NC(=S)N/N=C(\C)c1ccccn1` showed an AC35 of less than 0.08 µM.
With `CSC(=S)N/N=C(\C)c1cccc(C)n1` the AC35 was 0.687 µM.
Molecule `C[C@@H]1CN([C@@H](C)CO)C(=O)c2cc(NC(=O)Nc3ccc4c(c3)OCO4)ccc2O[C@H]1CN(C)CC1CCCCC1` has an AC35 of 89.9 µM.
In the case of `C/C(=N\NC(=S)Nc1cccc(C)c1)c1ccccn1`, the AC35 is reported as less than 0.08 µM.
`C[C@@H]1CN([C@@H](C)CO)C(=O)c2cccc(NC(=O)Nc3cccc4ccccc34)c2O[C@H]1CN(C)C(=O)Nc1ccc(C(F)(F)F)cc1` showed an AC35 of 29.8 µM.
For `C/C(=N\NC(=S)Nc1ccccc1)c1ccccn1`, the AC35 was less than 0.08 µM.
Molecule `CC12CCC3C(CC=C4CC(O)CCC43CO)C1CCC2OC(=O)c1ccccc1` (centres undefined) has an AC35 of 45.6 µM.
`CCC(Sc1nnc2c3ccccc3n(Cc3ccc(Br)cc3)c2n1)C(=O)NCCCN1CCOCC1` (centres undefined) gave an AC35 of 8.58 µM.
`C[C@H](CO)N1C[C@H](C)[C@@H](CN(C)CC2CC2)OCCCC[C@H](C)Oc2ccc(NC(=O)Nc3cccc4ccccc34)cc2C1=O` gave an AC35 of 43 µM.
`C/C(=N\NC(=S)N1CC2CCC(CC2)C1)c1cnccn1` gave an AC35 of less than 0.08 µM.
`O=C(CSc1nnc2c3ccccc3n(Cc3ccccc3)c2n1)NCc1ccco1` gave an AC35 of 44.1 µM.
`COc1ccc(NC(=O)c2ccc(OC(C)C(=O)O)cc2)cc1Cl` (centres undefined) gave an AC35 of 34.1 µM.
In the case of `C/C(=N\NC(=S)N1CCCCC1)c1cccc(C)n1`, the AC35 is reported as less than 0.08 µM.
For `Cc1c(NC(=O)c2cccc(NC(=O)COc3ccccc3C#N)c2)c(=O)n(-c2ccccc2)n1C`, the AC35 was 45.6 µM.
`Cc1ccc(NC(=O)C2CCN(S(=O)(=O)c3ccc4c(c3)NC(=O)C(C)S4)CC2)cc1Cl` (centres undefined) gave an AC35 of 45.7 µM.
`O=C1/C(=C/c2ccncc2)SC(=S)N1Cc1ccccc1` gave an AC35 of 38.5 µM.
`C[C@H](CO)N1C[C@H](C)[C@@H](CN(C)Cc2ccc(-c3ccccc3)cc2)Oc2ccc(NC(=O)Nc3cccc4ccccc34)cc2CC1=O` showed an AC35 of 28.8 µM.
For `COc1ccc2[nH]c(C(=O)N/N=C/c3ccc(O)cc3O)cc2c1`, the AC35 was 26.7 µM.
For `Cc1ccnc(NC(=O)c2ccc(C(=O)c3ccccc3)cc2)c1`, the AC35 was 24.1 µM.
For `C/C(=N\NC(=S)N1CC2CCC(CC2)C1)c1ccncn1`, the AC35 was less than 0.08 µM.
Work on `Nc1ccn([C@@H]2O[C@H](CO)[C@@H](O)C2O)c(=O)n1` (some centres undefined) yielded an AC35 of 26.1 µM.
Molecule `CCN1CCN(C(c2cccnc2)c2cc(Cl)c3cccnc3c2O)CC1` (centres undefined) has an AC35 of 26.5 µM.
In the case of `C[C@@H]1CN([C@@H](C)CO)C(=O)c2cc(NC(=O)Nc3ccc(C(F)(F)F)cc3)ccc2O[C@@H](C)CCCCO[C@H]1CN(C)Cc1ccc(C(F)(F)F)cc1`, the AC35 is reported as 30.8 µM.
For `CC(C)=CCN(C(=O)C#Cc1ccccc1)[C@H](CO)c1ccccc1`, the AC35 was 8.22 µM.
In the case of `S=C(N/N=C(\c1ccccc1)c1ccccn1)N(Cc1ccccn1)Cc1ccccn1`, the AC35 is reported as 0.135 µM.
For `C[C@H](CO)N1C[C@H](C)[C@H](CN(C)C(=O)Nc2ccc(C(F)(F)F)cc2)OCCCC[C@H](C)Oc2ccc(NC(=O)Nc3ccc(F)cc3)cc2C1=O`, the AC35 was 21.5 µM.
